Reference: PMC10398685 (ACS Omega, 2023)
Entries after “also recorded” stand apart in the source; their conditions may differ.

Assays:
[1] = Steady-state intracellular uptake in CCRF-CEM cells; type: in vitro ADME; conditions: human, CCRF-CEM cells, 60 min incubation, 50 μM at t = 0, read-out: Kp (intracellular accumulation ratio IC/EC)
From the text: (§1) While an enzymatic MTase assay represents a valuable fast screening platform providing the information that can be directly used for SAR analyses, it is not fully predictive for the compounds’ activity in whole cells. In order to verify the ability of the compounds to reach the intracellular compartment, we measured the steady-state accumulation of representative compounds in intact CCRF-CEM, VERO-E6, and Calu-3 cells (Tables 3 and S2). […] Compound 12q was almost completely cleared from the medium after 60 min incubation with the cells rendering it among the most permeable compounds of the series based on Kp values. It should be noted that the apparent intracellular concentration of the compounds may be biased by their potential metabolism. Therefore, we decided to subject the selected derivatives to in vitro stability studies. […]
(§2) 3.3. Intracellular Uptake
(§3) Steady-state cellular uptake was measured in CCRF-CEM cells (ATCC, CRL-119), VERO-E6 cells (ATCC, CRL-1586) and Calu-3 cells (HTB-55), respectively. Suspension cells (CCRF-CEM) were treated as follows: Prior to the experiment, cells were washed by centrifugation (250 x g, 5 min) in prewarmed (37 °C) serum-free RPMI medium and resuspended in the same vehicle to a concentration of 2 x 10^7 cells per mL. The cell suspension was distributed into the microtubes in 500 μL aliquots (10^7 cells), and the uptake process was initiated by the addition of 2.5 μL of the 10 mM DMSO solutions of the compounds (50 μM final conc.). Samples were incubated for 60 min at 37 °C in a CO 2 incubator using a rotary stirrer. The uptake was terminated by centrifugation at 900 x g for 5 min, at +4 °C. The medium was stored at −20 °C for later analysis of the extracellular concentration of the compounds. The cells were washed two times with 1 mL PBS (900 x g, 5 min, +4 °C), and also stored at −20 °C for subsequent analysis of the intracellular concentration of the compounds. At the day of the analysis, both media and the pelleted cells were quickly thawed. The cell pellets were extracted with 200 μL of ice-cold methanol by vigorous shaking, further diluted 1:1 with water and centrifuged at 20 000 x g for 10 min. As for the media samples, 10 μL aliquots were extracted with 990 μL of 50% methanol. The samples were then transferred to ECHO® -compatible 384-well plates and the amount of analytes were quantified by the ECHO -MS® System (Sciex) where acoustic droplet ejection module is coupled with Sciex 6500® triple quadrupole mass spectrometer operating with an electrospray ionization source. Spectrometer was run in the multiple reaction monitoring (MRM) mode. When necessary, the processed samples were further diluted in 50% methanol to fit in the calibration range. Calibration curves of the compounds in 50% methanol were measured alongside the samples within the same run. The ra tio between the total compound concentration in the cells and compound concentration in the medium (K p) at t=60 min was calculated according to: Kp = (Acell / Vcell) / Cmedium, where Acell is the amount of compound in the cell lysate, Vcell is the CCRF-CEM cell volume (3.38 μL/10^7 cells)16 and Cmedium is the compound concentration in the medium sample after correcting for sample dilution. Experiments were performed in duplicates. […]

[2] = test system: CCRF-CEM cells; experiment: as above; type: in vitro ADME; conditions: 60 min incubation, 50 μM at t = 0
From the text: as §1, §2, §3

[3] = Microsomal stability, human; type: in vitro ADME; conditions: triplicates; for Microsomal stability Rem. at 45 min / Microsomal stability T1/2: 0.5 mg/ml human microsomes, 5uM; for microsomal CLint at 5 µM / half-life at 5 µM: pooled liver microsomes, pH 7.4, 0.5 mg/ml human microsomes; for half-life at 5 µM: read-out: Microsomal stability T1/2
From the text: 50% methanol. The samples were then transferred to ECHO® -compatible 384-well plates and the amount of analytes were quantified by the ECHO -MS® System (Sciex) where acoustic droplet ejection module is coupled with Sciex 6500® triple quadrupole mass spectrometer operating with an electrospray ionization source. Spectrometer was run in the multiple reaction monitoring (MRM) mode. When necessary, the processed samples were further diluted in 50% methanol to fit in the calibration range. Calibration curves of the compounds in 50% methanol were measured alongside the samples within the same run. […]
3.4. Microsomal stability […]
The reactions were […]
terminated by the addition of four volumes of ice-cold methanol, mixed vigorously and left at -20 °C for 1 h. After that, the samples were centrifuged and the supernatants were analyzed by means of ECHO-MS® System (Sciex, Framingham, MA, USA). Zero time points were prepared by adding ice-cold methanol to the mixture of compound with cofactors prior to the addition of microsomes. The microsomal half-lives (t1/2) were calculated using the equation t1/2=0.693/k, where k is the slope found in the linear fit of the natural logarithm of the fraction remaining of the parent compound vs. incubation time. Intrinsic clearance (CLint) was calculated using the following formula: CLint = V * ln2 /t1/2, where V = incubation volume per milligram of microsomal protein (µL/mg) and t1/2 = microsomal half-life. […]
3.6. Caco-2 permeability assay
Transepithelial bi-directional transport of tested compounds (5 µM, pH 7.4/7.4) across the Caco-2 monolayers was studied using the BD BioCoat HTS Caco -2 assay system (BD Biosciences, Bedford, MA) as described in detail elsewhere.17 Aliquots were collected from the donor and acceptor compartment at the end of transport period (3 h), integrity of monolayers were verified using Lucifer Yellow dye and the compounds were quantified using LC-MS/MS (Sciex 6500® triple quadrupole). The apparent permeability coefficient (Papp) was calculated from the following equation: Papp = (dQ / dt) / C0 * A, where dQ/dt is the rate of absorption of the drug across the cells, C0 is the donor compartment concentration at time zero, and A is the area of the monolayer. Efflux ratio was expressed as (Papp B-A) / (Papp A-B). Recovery (%) was determined as (total compound mass in donor and receiver compartments at the end of the incubation / initial compound mass in the donor compartment) x 100.

[4] = test system: SARS-CoV-2; experiment: microbe, parasite or virus in culture; type: cell-based; conditions: Severe acute respiratory syndrome coronavirus 2, Vero C1008, 72 h; VeroE6 cells, MOI~0.03, 3 days incubation, CPE by XTT; read-out: EC50 (anti-SARS-CoV-2 activity)

Structure (SMILES)	Kp at 1 h, 50 µM [1]	EC (extracellular concentration in the media at t = 60 min) ± sd [2] [µM]	Microsomal stability Rem. at 45 min [3] [%]	microsomal CLint at 5 µM [3] [µL/min/mg]	half-life at 5 µM [3] [min]	EC50 [4] [µM]	Microsomal stability T1/2 [3]	IC (intracellular concentration in the cells at t = 60 min) ± sd [2]
COc1ccc(S(=O)(=O)N(C)C[C@H]2O[C@@H](n3cc(C#Cc4cccnc4)c4c(N)ncnc43)[C@H](O)[C@@H]2O)cc1C#N [Compound 12s]	604	15 ± 3	55.9 ± 4.7	27.1 ± 2	53.7 ± 2.7	> 100	–	–
CCN(C[C@H]1O[C@@H](n2cc(C#Cc3ccc(C(N)=O)cc3)c3c(N)ncnc32)[C@H](O)[C@@H]1O)S(=O)(=O)c1ccc(OC)c(C#N)c1 [Compound 12o]	694	13 ± 3	30.5 ± 5.3	53.8 ± 5.8	26.2 ± 3.4	> 100	–	–
COc1ccc(S(=O)(=O)N(C)C[C@H]2O[C@@H](n3cc(C#Cc4cnc5ccccc5c4)c4c(N)ncnc43)[C@H](O)[C@@H]2O)cc1C#N [Compound 12q]	5320	0.6 ± 0.1	105.0 ± 3.9	–	–	> 100	Stable; also recorded: excellent stability	–
CCN(C[C@H]1O[C@@H](n2cc(C#Cc3nc4ccccc4[nH]3)c3c(N)ncnc32)[C@H](O)[C@@H]1O)S(=O)(=O)c1ccc(OC)c(C#N)c1 [Compound 12a]	188	34 ± 0	18.5 ± 4.0	77.3 ± 10.3	17.3 ± 2.2	> 100	–	–
COc1ccc(S(=O)(=O)N(C)C[C@H]2O[C@@H](n3cc(C#Cc4ccc(C(N)=O)cc4)c4c(N)ncnc43)[C@H](O)[C@@H]2O)cc1C#N [Compound 12r]	897	12 ± 6	83.3 ± 2.6	–	–	> 100	Stable; also recorded: excellent stability	10,708 ± 358 μM
CCN(C[C@H]1O[C@@H](n2cc(C#Cc3cccnc3)c3c(N)ncnc32)[C@H](O)[C@@H]1O)S(=O)(=O)c1ccc(OC)c(C#N)c1 [Compound 12l]	163	29 ± 0	78.6 ± 1.1	11.2 ± 1.5	113 ± 3.5	> 100	–	–
CCN(C[C@H]1O[C@@H](n2cc(C#Cc3cnc4ccccc4c3)c3c(N)ncnc32)[C@H](O)[C@@H]1O)S(=O)(=O)c1ccc(OC)c(C#N)c1 [Compound 12e]	–	0.2 ± 0.0	60.2 ± 3.5	19.6 ± 6.1	91.3 ± 12.2	> 100	–	–
CCN(C[C@H]1O[C@@H](n2cc(C#Cc3ccc(N)nc3)c3c(N)ncnc32)[C@H](O)[C@@H]1O)S(=O)(=O)c1ccc(OC)c(C#N)c1 [Compound 12h]	480	14 ± 1	47.2 ± 3.5	34.9 ± 4	38 ± 3.7	> 100	–	–
